# Test results published in patent US20100210539A1, “USE OF PEPTIDE LL-37 AS A THERAPEUTIC AGENT” (priority 2007, published 2010).
# Test system: drug-resistant Mycobacterium tuberculosis
# Settings: peptide 10 micrograms per ml, seven days
structure (smiles),measurement,value
CC[C@H](C)[C@H](NC(=O)[C@H](CCCCN)NC(=O)[C@H](CCC(=O)O)NC(=O)[C@H](CCCCN)NC(=O)[C@H](CO)NC(=O)[C@H](CCCCN)NC(=O)[C@H](CCCNC(=N)N)NC(=O)[C@H](Cc1ccccc1)NC(=O)[C@H](Cc1ccccc1)NC(=O)[C@H](CC(=O)O)NC(=O)CNC(=O)[C@H](CC(C)C)NC(=O)[C@@H](N)CC(C)C)C(=O)NCC(=O)N[C@@H](CCCCN)C(=O)N[C@@H](CCC(=O)O)C(=O)N[C@@H](Cc1ccccc1)C(=O)N[C@@H](CCCCN)C(=O)N[C@@H](CCCNC(=N)N)C(=O)N[C@H](C(=O)N[C@H](C(=O)N[C@@H](CCC(N)=O)C(=O)N[C@@H](CCCNC(=N)N)C(=O)N[C@H](C(=O)N[C@@H](CCCCN)C(=O)N[C@@H](CC(=O)O)C(=O)N[C@@H](Cc1ccccc1)C(=O)N[C@@H](CC(C)C)C(=O)N[C@@H](CCCNC(=N)N)C(=O)N[C@@H](CC(N)=O)C(=O)N[C@@H](CC(C)C)C(=O)N[C@H](C(=O)N1CCC[C@H]1C(=O)N[C@@H](CCCNC(=N)N)C(=O)N[C@H](C(=O)N[C@@H](CCC(=O)O)C(=O)N[C@@H](CO)C(N)=O)[C@@H](C)O)C(C)C)[C@@H](C)CC)C(C)C)[C@@H](C)CC [LL-37],% inhibition,0.0%
